Test results from paper PMC5785503, “Development of novel fluorescent histamine H1-receptor antagonists to study ligand-binding kinetics in living cells” (Scientific Reports, 2018).

Key:
human H1R = target: T1, human H1R (Homo sapiens, UniProt P35367); assay: [3H]mepyramine competition radioligand binding, HEK293T cell homogenates; details: read-out: Radioligand binding pKi (converted)
T1 construct: expressed in transfected cells
Experimental: […]. […] […]. All ligand binding was performed under gentle agitation. […] […].

H1-YFP = target: T2, H1-YFP (Homo sapiens, UniProt P35367); assay type: cell-based
T2 construct: expressed in transfected cells
Experimental: CHO H1R and CHO H1-YFP cells were grown to approximately 80% confluency on 8-well Labtek chambered coverglasses (Nunc Nalgene). […] Cells were then incubated with the required concentration of fluorescent ligand for 30 min prior to the collection of single equatorial confocal images. Images were obtained using a Zeiss LSM710 confocal microscope (Carl Zeiss GmbH, Jena, Germany) fitted with a 63× plan-Apochromat NA1.3 Ph3 oil-immersion lens within the School of Life Sciences Imaging Unit. […] For all experiments a pinhole of 1 Airy Unit was used and fixed laser power, gain and offset for the BY630 containing compounds were kept the same for samples within each experiment.

Nluc-H1R [1] = target: T3, Nluc-H1R (Homo sapiens, UniProt P35367); assay: NanoBRET association kinetics in HEK293T cell membranes; assay type: binding; details: kinetic, n = 4, read-out: pKD (calculated affinity) in membranes (converted)
Experimental: (§1) HEK293T cell stably expressing Nluc-H1 were grown to confluence in 500 cm^2 dishes. Normal growth media was replaced with ice-cold PBS and the cells were removed from the dish by scraping. The cells were then transferred to a 50 ml tube and centrifuged at 250 × g for 5 min. The supernatant was removed and the resulting pellets stored at −80 °C. Thawed pellets were resuspended in PBS and homogenized using an electrical homogenizer in 10 × 2 s bursts. Unbroken cells and nuclei were removed by centrifugation (1200 × g for 10 min) and the supernatant subsequently centrifuged at 41,415 g for 30 min. The membrane pellet was resuspended in PBS and homogenized by 20 passes of a glass-on-Teflon homogenizer. Protein concentration was determined using a BCA protein assay and membranes stored at −80 °C until required.
(§2) Immediately before experimentation, media was replaced with HBSS. […] For association kinetics experiments, the required concentration of fluorescent ligand in the presence or absence of 10 µM doxepin was added simultaneously. […] Non-specific binding was determined by the addition of […] 10 µM doxepin.
From association kinetic data, non-specific binding was determined for each concentration of fluorescent ligand at each time point by the addition of 10 µM doxepin and was subtracted from total binding.

Nluc-H1R [2] = target: T3, Nluc-H1R; assay: NanoBRET saturation binding in whole HEK293T cells
Excerpt: (§3) Immediately before experimentation, media was replaced with HBSS. […] […]. […] […].

Nluc-H1R [3] = target: T3, Nluc-H1R; assay: NanoBRET saturation binding in HEK293T cell membranes; details: value used in Cheng-Prusoff equation, read-out: KD of labelled ligand in membranes
Experimental: as §1, §2

Nluc-H1R [4] = target: T3, Nluc-H1R; assay: NanoBRET association kinetics in whole HEK293T cells; assay type: binding; details: for Kd: kinetic KD (koff/kon), whole HEK293T cells expressing Nluc-H1R, read-out: NanoBRET kinetics pKD (converted); for residence time: read-out: NanoBRET kinetics Tr (residence time); for koff: read-out: NanoBRET kinetics koff, whole HEK293T cells expressing Nluc-H1R, room temperature; for kon: read-out: NanoBRET kinetics kon, whole HEK293T cells expressing Nluc-H1R, room temperature, non-specific 10 μM doxepin
Excerpt: as §3

H1R = target: H1R; set-up: method as in PMID 22007643; details: parent compound at the H1R; cited from earlier work
[5] = HEK293T cells expressing Nluc-H1R, mean ± SEM, read-out: NanoBRET saturation pKD (converted)
[6] = NanoBRET, value used in Cheng-Prusoff equation, read-out: KD of labelled ligand in whole cells

T3 sequence (P35367 2-487 limits assumed): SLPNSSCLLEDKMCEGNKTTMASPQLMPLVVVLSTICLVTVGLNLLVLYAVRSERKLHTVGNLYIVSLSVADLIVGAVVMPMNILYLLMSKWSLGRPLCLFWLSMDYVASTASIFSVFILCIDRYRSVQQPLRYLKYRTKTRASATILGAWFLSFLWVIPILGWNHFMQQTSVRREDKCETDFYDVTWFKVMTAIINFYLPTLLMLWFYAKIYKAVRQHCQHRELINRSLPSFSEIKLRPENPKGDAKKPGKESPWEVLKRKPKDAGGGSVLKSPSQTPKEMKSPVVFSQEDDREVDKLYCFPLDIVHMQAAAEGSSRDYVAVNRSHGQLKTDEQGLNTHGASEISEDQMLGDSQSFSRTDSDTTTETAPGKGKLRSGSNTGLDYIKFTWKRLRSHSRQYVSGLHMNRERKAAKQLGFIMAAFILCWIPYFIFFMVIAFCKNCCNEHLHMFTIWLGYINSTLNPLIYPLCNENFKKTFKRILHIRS
T2 sequence (P35367 whole entry): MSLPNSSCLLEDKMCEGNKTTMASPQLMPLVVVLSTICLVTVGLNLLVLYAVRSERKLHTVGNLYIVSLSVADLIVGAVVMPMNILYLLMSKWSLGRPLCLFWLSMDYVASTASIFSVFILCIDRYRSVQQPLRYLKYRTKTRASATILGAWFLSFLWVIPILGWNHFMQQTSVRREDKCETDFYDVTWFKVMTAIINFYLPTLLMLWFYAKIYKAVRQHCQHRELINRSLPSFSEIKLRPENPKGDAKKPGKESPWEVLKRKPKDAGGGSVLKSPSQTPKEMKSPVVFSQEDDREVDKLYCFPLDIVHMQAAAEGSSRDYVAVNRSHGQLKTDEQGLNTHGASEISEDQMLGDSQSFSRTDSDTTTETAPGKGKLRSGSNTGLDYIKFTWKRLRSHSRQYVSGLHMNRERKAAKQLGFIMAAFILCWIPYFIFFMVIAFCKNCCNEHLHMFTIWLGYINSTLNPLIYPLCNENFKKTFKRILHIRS
T1 sequence (P35367 whole entry): as above

SMILES | Ki (human H1R) [nM] | BODIPY630/650 fluorescence localisation (confocal) (H1-YFP) | fluorescence after pre-treatment with unlabelled mepyramine (specificity, confocal) (H1-YFP) | Kd (Nluc-H1R [1]) [nM] | Kd (Nluc-H1R [2]; [5]) [nM] | Kd (Nluc-H1R [2]; [6]) [nM] | Kd (Nluc-H1R [3]) [nM] | Kd (Nluc-H1R [4]) [nM] | residence time (Nluc-H1R [4]) [min] | koff (Nluc-H1R [4]) [s⁻¹] | kon (Nluc-H1R [4]) [M⁻¹ s⁻¹] | pKi (H1R)
COc1ccc(CN(CCN(C)CCC(=O)N[C@@H](C)C(=O)N[C@@H](C)C(=O)NCCNC(=O)CCCCCNC(=O)COc2ccc(/C=C/C3=[N+]4C(=Cc5ccc(-c6cccs6)n5[B-]4(F)F)C=C3)cc2)c2ccccn2)cc1 [Compound 10, 6-(2-(4-((E)-2-(5,5-difluoro-7-(thiophen-2-yl)-5H-4λ^4,5λ^4-dipyrrolo[1,2-c:2′,1′-f][1,3,2]diazaborinin-3-yl)vinyl)phenoxy)acetamido)-N-((10 S,13 S)-1-(4-methoxyphenyl)-5,10,13-trimethyl-8,11,14-trioxo-2-(pyridin-2-yl)-2,5,9,12,15-pentaazaheptadecan-17-yl)hexanamide] | 25.1 | clear membrane localisation | very little fluorescence was observed | 3.55 | 7.94 | 9.2 | 28.8 | 5.01 | 4.99 ± 0.78 | – | – | –
COc1ccc(CN(CCN(C)CCC(=O)N[C@@H](C)C(=O)N[C@@H](C)C(=O)N[C@@H](CO)C(=O)NCCNC(=O)CCCCCNC(=O)COc2ccc(/C=C/C3=[N+]4C(=Cc5ccc(-c6cccs6)n5[B-]4(F)F)C=C3)cc2)c2ccccn2)cc1 [Compound 11, 6-(2-(4-((E)-2-(5,5-difluoro-7-(thiophen-2-yl)-5H-4λ^4,5λ^4-dipyrrolo[1,2-c:2′,1′-f][1,3,2]diazaborinin-3-yl)vinyl)phenoxy)acetamido)-N-((10 S,13 S,16 S)-16-(hydroxymethyl)-1-(4-methoxyphenyl)-5,10,13-trimethyl-8,11,14,17-tetraoxo-2-(pyridin-2-yl)-2,5,9,12,15,18-hexaazaicosan-20-yl)hexanamide] | 10 | clear membrane localisation | some residual cell surface fluorescence was observed | – | 63.1 | – | – | 6.31 | 8.4 ± 0.91 | 0.0021 | 330000 | –
COc1ccc(CN(CCN(C)CCC(=O)NCCCC(=O)N[C@@H](C)C(=O)N[C@@H](C)C(=O)NCCNC(=O)CCCCCNC(=O)COc2ccc(/C=C/C3=[N+]4C(=Cc5ccc(-c6cccs6)n5[B-]4(F)F)C=C3)cc2)c2ccccn2)cc1 [Compound 12, 5,5-difluoro-3-((E)-4-(((15 R,18 R)-1-(4-methoxyphenyl)-5,15,18-trimethyl-8,13,16,19,24,31-hexaoxo-2-(pyridin-2-yl)-2,5,9,14,17,20,23,30-octaazadotriacontan-32-yl)oxy)styryl)-7-(thiophen-2-yl)-5H-4λ^4-dipyrrolo[1,2-c:2′,1′-f][1,3,2]diazaborinin-5-uide] | 20 | clear membrane localisation | very little fluorescence was observed | – | 50.1 | – | – | 39.8 | 7.68 ± 0.58 | 0.00223 | 55000 | –
C[C@H](NC(=O)CCN1CCC(Oc2ccccc2Cc2ccccc2)CC1)C(=O)N[C@@H](C)C(=O)N[C@@H](C)C(=O)NCCNC(=O)CCCCCNC(=O)COc1ccc(/C=C/C2=[N+]3C(=Cc4ccc(-c5cccs5)n4[B-]3(F)F)C=C2)cc1 [Compound 23, N-((5 S,8 S,11 S)-15-(4-(2-benzylphenoxy)piperidin-1-yl)-5,8,11-trimethyl-4,7,10,13-tetraoxo-3,6,9,12-tetraazapentadecyl)-6-(2-(4-((E)-2-(5,5-difluoro-7-(thiophen-2-yl)-5H-4λ^4,5λ^4-dipyrrolo[1,2-c:2′,1′-f][1,3,2]diazaborinin-3-yl)vinyl)phenoxy)acetamido)hexanamide] | 3.98 | – | Some residual binding was observed | – | 7.94 | 9.8 | – | 12.6 | 54.1 ± 5.33 | 0.000317 | 26700 | –
NC(=O)C[C@H](NC(=O)CNC(=O)CNC(=O)CCN1CCC(Oc2ccccc2Cc2ccccc2)CC1)C(=O)NCCNC(=O)CCCCCNC(=O)COc1ccc(/C=C/C2=[N+]3C(=Cc4ccc(-c5cccs5)n4[B-]3(F)F)C=C2)cc1 [Compound 24, (S,E)-2-(2-(2-(3-(4-(2-benzylphenoxy)piperidin-1-yl)propanamido)acetamido)acetamido)-N^1-(2-(6-(2-(4-(2-(5,5-difluoro-7-(thiophen-2-yl)-5H-4λ^4,5λ^4-dipyrrolo[1,2-c:2′,1′-f][1,3,2]diazaborinin-3-yl)vinyl)phenoxy)acetamido)hexanamido)ethyl)succinamide] | 5.01 | – | – | – | 25.1 | – | – | 10 | 37.8 ± 3.44 | 0.00045 | 48300 | –
CC(O)[C@H](NC(=O)[C@H](C)NC(=O)[C@H](CC(N)=O)NC(=O)CCN1CCC(Oc2ccccc2Cc2ccccc2)CC1)C(=O)NCCNC(=O)CCCCCNC(=O)COc1ccc(/C=C/C2=[N+]3C(=Cc4ccc(-c5cccs5)n4[B-]3(F)F)C=C2)cc1 (stereo partly drawn) [Compound 25, (S)-2-(3-(4-(2-benzylphenoxy)piperidin-1-yl)propanamido)-N^1-((15 S,18 S)-1-(4-((E)-2-(5,5-difluoro-7-(thiophen-2-yl)-5H-4λ^4,5λ^4-dipyrrolo[1,2-c:2′,1’-f][1,3,2]diazaborinin-3-yl)vinyl)phenoxy)-15-((S)-1-hydroxyethyl)-2,9,14,17-tetraoxo-3,10,13,16-tetraazanonadecan-18-yl)succinamide] | 6.31 | – | – | – | 31.6 | – | – | 10 | 39.5 ± 9.4 | 0.0005 | 43300 | –
c1ccc(Cc2ccccc2OC2CCNCC2)cc1 [VUF13816, 4-(2-benzylphenoxy)piperidine] | – | – | – | – | – | – | – | – | – | – | – | 8.20
